The test system of this experiment is IgE of peanut allergic patients. Nature of the experiment: Immunodot assay with sera of peanut allergic patients. The format is binding, human. The following applies: peptide-pIII fusion proteins spotted on nitrocellulose, patient sera diluted 1:10, FIG. 3. On the procedure:
Three selected IgE epitope-like peptides (ELP 2, ELP 5, ELP 6) were extracted as recombinant fusions with bacteriophage minor coat protein pIII from the periplasm of host bacteria with osmotic shock. Two target-unrelated control peptides also fused to protein pIII (binders to streptavidin and human leptin) were extracted in the same way and served as negative controls (C1, C2). Briefly, E. coli host bacteria were infected with individual phage clones and grown for 2 hours at 37° C. with agitation. Bacteria pellets were spun down at 5000×g for 10 min and resuspended in 1 ml of an ice-cold solution consisting of 20% sucrose, 200 mM Tris-HCl pH 8.0 and 1 mM EDTA supplemented with protease inhibitor cocktail (EZBlock™, BioVision, San Francisco, USA) at a dilution of 1:200. After 1 h incubation on ice with occasional stirring supernatants were harvested by centrifugation at 12000×g for 20 minutes at 4° C. Resulting periplasmic extracts containing […] fusion proteins were concentrated (4-5 fold) and sucrose buffer exchanged for PBS by ultrafiltration with 10 kDa cut-off membrane (Microsep Advance Centrifugal Device, Pall Corporation, New York, USA). For immunoprecipitation of each selected peptide, 20 μg of affinity purified rabbit IgG against Ara h 2 (INDOOR Biotechnologies, Charlottesville, Virginia, USA) were covalently coupled to 1 mg of Dynabeads M-280 Tosylactivated™ (Thermo Fisher Scientific) according to manufacturer's protocol. Control peptides were immunoprecipitated in the same way using 10 μg of anti-human leptin antibody (R and D Systems Cat #MAB398 RRID:AB_2136056) coupled to 1 mg of Dynabeads M-280 Tosylactivated™ in the case of peptide with the affinity toward human leptin and 0.5 mg of streptavidin-coupled beads (Dynabeads™ MyOne™ Streptavidin T1, Thermofisher Scientific) in the case of peptide with the affinity towards streptavidin. […]
As to “DHPRFNRDNDVA (IgE epitope-like peptide) [ELP 2]”, the “binding to IgE of peanut allergic patients” value (from here on “binding to IgE”) is given as “bind to patients' IgE”. For the substance “DHPRFST (IgE epitope-like peptide) [ELP 6]”, the “binding to IgE” value is given as “bind to patients' IgE”.

As to “DHPRYGP (IgE epitope-like peptide) [ELP 5]”, the “binding to IgE” value is recorded as “bind to patients' IgE”.
